Data reported in the NIST ThermoML archive (doi:10.1021/acs.jced.6b00552).
± gives the expanded uncertainty stated by the source.

Columns and labels:
[1] = Crystal; DSC
[2] = Molar enthalpy of transition or fusion; conditions: Crystal; DSC

| Triple point temperature [1] [K] | Molar enthalpy of transition or fusion [2] [kcal/mol] | Structure (SMILES) |
| --- | --- | --- |
| 542.96 ± 1.2 | 13.5 ± 0.837 | O=C(CCc1ccc(O)cc1)c1c(O)cc(O)cc1O [3-(4-hydroxyphenyl)-1-(2,4,6-trihydroxyphenyl)propan-1-one] |
| 432.22 ± 1.2 | 7.08 ± 0.454 | C[C@@H]1O[C@@H](O[C@H]2[C@H](Oc3cc(O)c(C(=O)CCc4ccc(O)cc4)c(O)c3)O[C@H](CO)[C@@H](O)[C@@H]2O)[C@H](O)[C@H](O)[C@H]1O [naringin dihydrochalcone] |
